Data: patent US7683168B2, “Compositions of novel opioid compounds and method of use thereof” (priority 2005, dated 2010)

Tests used:
μ opioid receptor = molecular target: T1, μ opioid receptor (Rattus norvegicus, UniProt P33535); experiment: radioligand binding, μ opioid receptor, rat brain membranes; details: cell marked (rat), tritium-labeled DAMGO
T1 construct: tissue Pel-Freeze Biological Inc. (Rogers, Ark.); host or cells: rat whole brain

κ opioid receptor = molecular target: T2, κ opioid receptor (Cavia porcellus, UniProt P41144); experiment: radioligand binding, κ opioid receptor, guinea pig cerebellum; details: tritium-labeled U69593
T2 construct: tissue Pel-Freeze Biological Inc. (Rogers, Ark.); host or cells: guinea pig cerebellum

[1] = system: seizure-like convulsions in mice; experiment: mouse seizure-like convulsions; type: in vivo
Procedure, shortened: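 Male CD-1 mice (Charles River, Raleigh, N.C.) of 20-25 g were dosed and watched for one hour to detect seizure-like convulsions mediated by central delta receptors. An event was counted when clonic or tonic/clonic muscle movements involved the whole body, usually followed by brief catalepsy, judged by no attempt to withdraw front paws from a bar 2-3 inches above the floor.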

mouse vas deferens = experiment: electrically stimulated mouse vas deferens (MVD) ED50; type: cell-based; details: ED50, inhibition of electrically induced contractions
δ opioid receptor = molecular target: T3, δ opioid receptor (Rattus norvegicus, UniProt P33533); experiment: radioligand binding, δ opioid receptor, rat brain membranes; details: cell marked (rat), tritium-labeled Deltorphin II
T3 construct: tissue Pel-Freeze Biological Inc. (Rogers, Ark.); host or cells: rat whole brain

guinea pig ileum = experiment: electrically stimulated guinea pig ileum (GPI) ED50; type: cell-based; details: Cavia porcellus; ED50, inhibition of electrically induced contractions
Procedure: Further the compounds of formula (1) were evaluated for in vitro opioid receptor activity in various receptor systems, including mouse vas deferens (Mouse Vas Deferens ED50), and guinea pig ileum (Guinea Pig Ileum ED50). The assay procedures used for such determinations of receptor activity are set out below.
Intact ileums (about 3 cm length) were removed from guinea pig and suspended with 1 g of tension in a bath chamber as described for the vasa deferentia. The ileums were stimulated with electrical square-wave pulses of 0.1-Hz, 1 msec pulse duration at supramaximal voltage.
The ED50 values were extrapolated from curves showing the dose concentration plotted against the response (J. A. H. Lord, A. A. Waterfield, J. Hughes, H. W. Kosterlitz, Nature 267, 495, (1977)).

human mu opioid receptor = molecular target: T4, human mu opioid receptor (Homo sapiens, UniProt P35372); experiment: radioligand binding, human mu opioid receptor, CHO cell membranes; details: species not given, read-out: μ
T4 construct: purchased Perkin Elmer, Boston, Mass; 6110535; host or cells: CHO cells

human delta receptor = molecular target: T5, human delta receptor (Homo sapiens, UniProt P41143); experiment: radioligand binding, human delta receptor, HEK-293 cell membranes; details: cell not marked (rat), species not given, read-out: δ
T5 construct: purchased Perkin Elmer, Boston, Mass; 6110549; host or cells: HEK-293 cells

[2] = system: tail-pinch antinociception in mice; details: mouse, in vivo

T2 sequence (P41144 whole entry): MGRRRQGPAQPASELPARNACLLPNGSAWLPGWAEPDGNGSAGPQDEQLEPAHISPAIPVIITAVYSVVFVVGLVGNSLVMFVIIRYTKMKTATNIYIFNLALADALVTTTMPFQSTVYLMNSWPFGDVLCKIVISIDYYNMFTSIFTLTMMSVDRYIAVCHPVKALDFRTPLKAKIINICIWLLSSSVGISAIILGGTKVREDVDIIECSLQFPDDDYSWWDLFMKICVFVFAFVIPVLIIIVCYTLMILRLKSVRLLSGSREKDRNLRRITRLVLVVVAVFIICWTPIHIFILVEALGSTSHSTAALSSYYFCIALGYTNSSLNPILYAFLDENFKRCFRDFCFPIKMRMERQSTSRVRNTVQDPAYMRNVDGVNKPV
T4 sequence (P35372 whole entry): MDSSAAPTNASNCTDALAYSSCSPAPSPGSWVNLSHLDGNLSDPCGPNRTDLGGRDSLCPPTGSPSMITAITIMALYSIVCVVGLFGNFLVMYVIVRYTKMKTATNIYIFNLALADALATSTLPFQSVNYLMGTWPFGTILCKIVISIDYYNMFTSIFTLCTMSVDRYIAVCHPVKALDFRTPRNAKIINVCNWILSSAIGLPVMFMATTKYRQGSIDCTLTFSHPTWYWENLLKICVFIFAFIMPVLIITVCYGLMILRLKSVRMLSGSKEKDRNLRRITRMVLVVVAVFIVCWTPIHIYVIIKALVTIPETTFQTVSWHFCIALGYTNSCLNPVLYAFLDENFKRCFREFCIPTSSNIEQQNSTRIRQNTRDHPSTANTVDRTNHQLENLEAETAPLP
T3 sequence (P33533 whole entry): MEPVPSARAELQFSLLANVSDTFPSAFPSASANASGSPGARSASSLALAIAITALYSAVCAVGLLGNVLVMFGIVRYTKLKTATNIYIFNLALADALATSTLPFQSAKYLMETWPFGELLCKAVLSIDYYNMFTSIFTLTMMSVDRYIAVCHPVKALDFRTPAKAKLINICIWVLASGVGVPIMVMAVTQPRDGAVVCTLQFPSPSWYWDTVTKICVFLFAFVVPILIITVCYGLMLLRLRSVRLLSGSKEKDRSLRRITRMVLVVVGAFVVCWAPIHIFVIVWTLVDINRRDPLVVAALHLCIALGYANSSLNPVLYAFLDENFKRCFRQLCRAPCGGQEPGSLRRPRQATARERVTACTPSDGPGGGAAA
T5 sequence (P41143 whole entry): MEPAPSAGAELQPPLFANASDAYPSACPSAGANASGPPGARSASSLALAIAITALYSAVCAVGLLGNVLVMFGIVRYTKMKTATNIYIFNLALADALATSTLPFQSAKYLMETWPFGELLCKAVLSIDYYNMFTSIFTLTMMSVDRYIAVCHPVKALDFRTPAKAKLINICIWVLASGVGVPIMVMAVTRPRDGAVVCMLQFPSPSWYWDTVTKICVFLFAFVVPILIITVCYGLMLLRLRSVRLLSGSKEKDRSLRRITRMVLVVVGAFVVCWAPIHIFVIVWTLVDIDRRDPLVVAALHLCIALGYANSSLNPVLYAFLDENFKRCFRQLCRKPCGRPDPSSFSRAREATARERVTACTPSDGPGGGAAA
T1 sequence (P33535 whole entry): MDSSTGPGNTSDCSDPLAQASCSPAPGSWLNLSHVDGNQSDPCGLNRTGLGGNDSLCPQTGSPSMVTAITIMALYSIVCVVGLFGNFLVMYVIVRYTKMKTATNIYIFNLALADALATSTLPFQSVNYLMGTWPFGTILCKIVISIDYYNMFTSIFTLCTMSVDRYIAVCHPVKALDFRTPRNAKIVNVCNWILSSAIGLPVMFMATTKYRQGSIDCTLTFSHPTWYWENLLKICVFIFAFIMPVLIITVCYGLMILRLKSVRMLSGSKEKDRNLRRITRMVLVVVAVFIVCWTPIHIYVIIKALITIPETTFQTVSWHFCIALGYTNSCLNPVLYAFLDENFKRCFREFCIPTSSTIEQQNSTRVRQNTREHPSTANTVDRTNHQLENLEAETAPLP

Structure (SMILES) | Ki (μ opioid receptor) | Ki (κ opioid receptor) | Seiz. ([1]; 3 mg/kg IV) | Seiz. ([1]; 10 mg/kg IV) | EC50 (mouse vas deferens) | Ki (δ opioid receptor) | EC50 (guinea pig ileum) | Seiz. ([1]; 100 mg/kg SC) | Ki (human mu opioid receptor) | Ki (human delta receptor) | maximum time of response in tail-pinch assay [2] | Seiz. ([1]; 20 mg/kg IV) | Seiz. ([1]; 200 mg/kg PO & SC) | Seiz. ([1]; 200 mg/kg PO)
C=CCN1C[C@H](C)N(C(c2cccc(O)c2)c2cccc(C(=O)N3CCCN(CC(=O)O)CC3)c2)C[C@H]1C (some centres unmarked) | 3.03 nM | 12.7 nM | 0% | 10% | 4.7 nM | 3.53 nM | – | – | – | – | – | – | – | –
C=CCN1C[C@H](C)N([C@@H](c2cccc(O)c2)c2cccc(C(=O)N3CCCN(CCC(=O)OCC)CC3)c2)C[C@H]1C | 0.55 nM | 1.09 nM | – | 30% 10 mg/kg IV | 5.58 nM | 0.57 nM | 112 nM | – | – | – | – | – | – | –
C=CCN1C[C@H](C)N([C@@H](c2cccc(O)c2)c2cccc(C(=O)N3CCCN(CCCC(=O)OCC)CC3)c2)C[C@H]1C | 1.76 nM | 1.22 nM | – | 0% 10 mg/kg IV | 22.6 nM | 1.66 nM | 198 nM | – | – | – | – | – | – | –
C=CCN1C[C@H](C)N([C@@H](c2cccc(O)c2)c2cccc(C(=O)N3CCCN(CCC(=O)O)CC3)c2)C[C@H]1C | 3.89 nM | 9.85 nM | – | 0% 10 mg/kg IV | 5.39 nM | 3.03 nM | 117 nM | – | – | – | – | – | – | –
C=CCN1C[C@H](C)N([C@@H](c2cccc(O)c2)c2cccc(C(=O)N3CCCN(CCCCC(=O)O)CC3)c2)C[C@H]1C | 9 nM | 27.7 nM | – | 0% 10 mg/kg IV 0% 100 mg/kg SC | 3.33 nM | 6.43 nM | – | 0% 10 mg/kg IV 0% 100 mg/kg SC | – | – | – | – | – | –
C=CCN1C[C@H](C)N(C(c2ccc(C(=O)N3CCCN(CCCC(=O)O)CC3)cc2)c2cccc(O)c2)C[C@H]1C (some centres unmarked) | 16.1 nM | 29.2 nM | – | 0% 10 mg/kg IV 0% 100 mg/kg SC | 0.95 nM | 3.94 nM | 439 nM | 0% 10 mg/kg IV 0% 100 mg/kg SC | – | – | – | – | – | –
C=CCN1C[C@H](C)N([C@@H](c2cccc(O)c2)c2cccc(C(=O)N3CCC(O)CC3)c2)C[C@H]1C [Example 134, {3-[(R)-((2S,5R)-4-Allyl-2,5-dimethyl-piperazin-1-yl)-(3-hydroxy-phenyl)-methyl]-phenyl}-(4-hydroxy-piperidin-1-yl)-methanone] | – | – | – | 0% 10 mg/kg IV | 5.44 nM | – | 46.7 nM | – | 1.1 nM | 0.36 nM | – | – | – | –
CN1CC[C@]23c4c5ccc(O)c4O[C@H]2[C@@H](O)C=C[C@H]3[C@H]1C5 [morphine, reference compound] | – | – | – | – | – | – | – | – | – | – | 20 s | – | – | –
CCOC(=O)C1CCN(C(=O)c2cccc([C@H](c3cccc(O)c3)N3C[C@@H](C)N(CC4CC4)C[C@@H]3C)c2)CC1 [Example 126, 1-{3-[(R)-((1S,4R)-4-Cyclopropylmethyl-2,5-dimethyl-piperazin-1-yl)-(3-hydroxy-phenyl)-methyl]-benzoyl}-piperidine-4-carboxylic acid ethyl ester] | – | – | – | 10% 10 mg/kg IV | 8.64 nM | – | 3310 nM | – | 1.5 nM | 3.7 nM | – | – | – | –
C[C@@H]1CN([C@@H](c2cccc(O)c2)c2cccc(C(=O)N3CCCN(CCC(=O)O)CC3)c2)[C@@H](C)CN1Cc1cccc(F)c1 | – | – | – | – | 4 nM | – | 154 nM | – | 7.7 nM | 4.17 nM | – | 0% 200 mg/kg PO & SC 0% 20 mg/kg IV | 0% 200 mg/kg PO & SC 0% 20 mg/kg IV | –
CCOC(=O)C1CCN(C(=O)c2cccc([C@H](c3cccc(O)c3)N3C[C@@H](C)N(Cc4cccc(F)c4)C[C@@H]3C)c2)CC1 [Example 124, 1-{3-[(R)-[(2S,5R)-4-(3-Fluoro-benzyl)-2,5-dimethyl-piperazin-1-yl]-(3-hydroxy-phenyl)-methyl]-benzoyl}-piperidine-4-carboxylic acid ethyl ester] | – | – | – | 10% 10 mg/kg IV | 2.54 nM | – | 1680 nM | – | 3.5 nM | 28.6 nM | – | – | – | –
C=CCN1C[C@H](C)N([C@@H](c2cccc(O)c2)c2cccc(C(=O)N3CCN(CCCC(=O)O)CC3)c2)C[C@H]1C [Example 75] | – | – | – | 0% 10 mg/kg IV | 4.1 nM | – | 178 nM | – | 10.8 nM | 25.3 nM | – | – | – | –
CCOC(=O)CN1CCN(C(=O)c2cccc([C@H](c3cccc(O)c3)N3C[C@@H](C)N(Cc4ccccc4)C[C@@H]3C)c2)CC1 [Example 68, (4-{3-[(R)-((2S,5R)-4-Benzyl-2,5-dimethyl-piperazin-1-yl)-(3-hydroxy-phenyl)-methyl]-benzoyl}-piperazin-1-yl)-acetic acid ethyl ester] | – | – | – | 80% 10 mg/kg IV | 1.91 nM | – | 526 nM | – | 1.22 nM | 0.73 nM | – | – | – | –
C=CCN1C[C@H](C)N([C@@H](c2cccc(O)c2)c2cccc(C(=O)N3CCN(CCCCC(=O)O)CC3)c2)C[C@H]1C [Example 84, 5-(4-{3-[(R)-((2S,5R)-4-Allyl-2,5-dimethyl-piperazin-1-yl)-(3-hydroxy-phenyl)-methyl]-benzoyl}-piperazin-1-yl)-pentanoic acid] | – | – | – | 0% 10 mg/kg IV | 3.76 nM | – | 209 nM | – | 57.3 nM | 13.4 nM | – | – | – | –
C[C@@H]1CN(C(c2cccc(O)c2)c2cccc(C(=O)N3CCCN(CCCC(=O)O)CC3)c2)[C@@H](C)CN1Cc1ccccc1 (some centres unmarked) | – | – | – | 0% 10 mg/kg IV | 1.07 nM | – | 159 nM | – | 1.9 nM | 14.8 nM | – | – | – | –
C=CCN1C[C@H](C)N([C@@H](c2cccc(O)c2)c2cccc(C(=O)N3CCC(C(=O)OCC)CC3)c2)C[C@H]1C [Example 119, 1-{3-[(R)-((2S,5R)-4-Allyl-2,5-dimethylpiperazin-1-yl)-(3-hydroxy-phenyl)methyl]benzoyl}piperidine-4-carboxylic acid ethyl ester] | – | – | – | 80% 10 mg/kg IV | 1.96 nM | – | 86.3 nM | – | 0.54 nM | 2.95 nM | – | – | – | –
C=CCN1C[C@H](C)N(C(c2cccc(O)c2)c2cccc(C(=O)N3CCCN(CC(=O)OCC)CC3)c2)C[C@H]1C (some centres unmarked) | 3.33 nM | 4.15 nM | – | 25% 10 mg/kg IV | 1.36 nM | 1.35 nM | – | – | – | – | – | – | – | –
C[C@@H]1CN([C@@H](c2cccc(O)c2)c2cccc(C(=O)N3CCCN(CCC(=O)O)CC3)c2)[C@@H](C)CN1Cc1ccccc1 | 3.9 nM | 3830 nM | – | – | 0.52 nM | 4 nM | 52.2 nM | – | – | – | – | 0% 200 mg/kg PO 0% 20 mg/kg IV | – | 0% 200 mg/kg PO 0% 20 mg/kg IV
CCOC(=O)CN1CCCN(C(=O)c2cccc(C(c3cccc(O)c3)N3C[C@@H](C)N(Cc4ccccc4)C[C@@H]3C)c2)CC1 (some centres unmarked) | – | – | – | 60% 10 mg/kg IV | 2.4 nM | – | 526 nM | – | 0.56 nM | 0.21 nM | – | – | – | –
C[C@@H]1CN([C@@H](c2cccc(O)c2)c2cccc(C(=O)N3CCN(CCCC(=O)O)CC3)c2)[C@@H](C)CN1Cc1ccccc1 [Example 80, 4-(4-{3-[(R)-((2S,5R)-4-Benzyl-2,5-dimethyl-piperazin-1-yl)-(3-hydroxy-phenyl)-methyl]-benzoyl}-piperazin-1-yl)-butyric acid] | – | – | – | 0% 10 mg/kg IV | 0.34 nM | – | 104 nM | – | 5.3 nM | 5.7 nM | – | – | – | –
C=CCN1C[C@H](C)N([C@@H](c2cccc(O)c2)c2cccc(C(=O)N3CCCN(CCCCC(=O)OCC)CC3)c2)C[C@H]1C | 1.25 nM | 0.6 nM | – | 0% 10 mg/kg IV | 43.7 nM | 2.9 nM | 231 nM | – | – | – | – | – | – | –
C=CCN1C[C@H](C)N(C(c2ccc(C(=O)N3CCCN(CCCC(=O)OCC)CC3)cc2)c2cccc(O)c2)C[C@H]1C (some centres unmarked) | 2.6 nM | 1.2 nM | – | 0% 10 mg/kg IV | 1.44 nM | 1.9 nM | 526 nM | – | – | – | – | – | – | –
C=CCN1C[C@H](C)N([C@@H](c2cccc(O)c2)c2cccc(C(=O)N3CCCN(CCCC(=O)O)CC3)c2)C[C@H]1C | 5.57 nM | 16.3 nM | – | 0% 10 mg/kg IV | 2.2 nM | 2.75 nM | 186 nM | – | – | – | – | – | – | –
C=CCN1C[C@H](C)N(C(c2cccc(O)c2)c2cccc(C(=O)N3CCCN(Cc4ccc(C(=O)O)cc4)CC3)c2)C[C@H]1C (some centres unmarked) | – | – | – | 0% 10 mg/kg IV | 3.1 nM | – | 150 nM | – | 4 nM | 0.39 nM | – | – | – | –
C=CCN1C[C@H](C)N(C(c2cccc(O)c2)c2cccc(C(=O)N3CCCNCC3)c2)C[C@H]1C (some centres unmarked) | 1.61 nM | 1.6 nM | – | 45% 10 mg/kg IV | 6.07 nM | 4.68 nM | – | – | – | – | – | – | – | –
